Data set [1] has as its system CWR22R. Description: Antiproliferative activity against human 22Rv1 cells after 96 hrs by propidium iodide staining based fluorescence 2D monolayer assay. The class given is functional, cell-based. The settings on record: 22Rv1, 96 h.
For data set [2], the system named is DU-145. Nature of the data set: Antiproliferative activity against human DU145 cells after 96 hrs by propidium iodide staining based fluorescence 2D monolayer assay. It counts as functional, cell-based. The conditions noted are these: DU-145, 96 h.
The test system of data set [3] is LNCaP. Description: Antiproliferative activity against human LNCAP cells after 96 hrs by propidium iodide staining based fluorescence 2D monolayer assay. The class given is functional, cell-based.
The test system of data set [4] is VCaP. Description: Antiproliferative activity against human VCaP cells after 96 hrs by propidium iodide staining based fluorescence 2D monolayer assay. The class given is functional, cell-based.
Data set [5] deals with LNCaP. Nature of the data set: Potency index, ratio of enzalutamide IC50 to compound IC50 for human LNCAP cells. The class given is functional.
Data set [6] addresses T1, Androgen receptor (Rattus norvegicus) (UniProt P15207).
T1 sequence (whole entry): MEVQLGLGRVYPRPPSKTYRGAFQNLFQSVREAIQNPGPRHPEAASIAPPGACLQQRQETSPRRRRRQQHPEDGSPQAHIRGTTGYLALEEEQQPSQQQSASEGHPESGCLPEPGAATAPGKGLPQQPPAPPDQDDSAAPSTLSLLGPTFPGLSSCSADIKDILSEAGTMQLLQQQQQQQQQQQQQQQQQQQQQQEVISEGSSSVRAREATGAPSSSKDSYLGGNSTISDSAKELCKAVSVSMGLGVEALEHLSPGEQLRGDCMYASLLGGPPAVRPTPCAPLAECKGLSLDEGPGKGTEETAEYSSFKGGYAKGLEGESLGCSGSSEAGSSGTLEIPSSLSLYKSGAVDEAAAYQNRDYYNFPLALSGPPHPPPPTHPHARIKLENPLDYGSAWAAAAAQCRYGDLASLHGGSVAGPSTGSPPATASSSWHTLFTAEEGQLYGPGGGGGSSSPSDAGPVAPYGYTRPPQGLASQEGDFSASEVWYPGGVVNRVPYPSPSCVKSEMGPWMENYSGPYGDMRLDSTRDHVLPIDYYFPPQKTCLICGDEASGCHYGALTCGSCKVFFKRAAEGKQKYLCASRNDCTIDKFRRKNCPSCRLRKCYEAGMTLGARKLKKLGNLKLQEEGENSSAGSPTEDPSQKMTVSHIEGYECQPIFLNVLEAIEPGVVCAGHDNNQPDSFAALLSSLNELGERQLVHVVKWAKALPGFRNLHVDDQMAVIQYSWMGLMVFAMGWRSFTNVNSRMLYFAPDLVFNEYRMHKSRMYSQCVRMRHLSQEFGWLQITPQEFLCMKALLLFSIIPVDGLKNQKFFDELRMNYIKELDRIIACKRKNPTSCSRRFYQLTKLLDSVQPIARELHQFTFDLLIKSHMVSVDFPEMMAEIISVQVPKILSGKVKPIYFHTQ
Nature of the data set: (§1) Antagonist activity at rat androgen receptor fused with DNA-binding domain of GAL4 expressed in AR-UAS-bla GripTite 293 cells assessed as inhibition of R1881-induced receptor activation preincubated for 30 mins followed by R1881 addition measured after 16 to 24 hrs by betalactamase reporter gene assay. The class given is cell-based.

The target in another data set is T2, Androgen receptor (Rattus norvegicus, UniProt P15207).
T2 sequence (P15207 whole entry): T1 sequence (whole entry)
Described as §1. It counts as cell-based.

For data set [7], the system named is LNCaP. Nature of the data set: Antiproliferative activity against human LNCAP cells assessed as relative inhibition after 96 hrs by propidium iodide staining based fluorescence 2D monolayer assay. The class given is functional, cell-based.
Data set [8] has as its system DU-145. Nature of the data set: Antiproliferative activity against human DU145 cells assessed as relative inhibition after 96 hrs by propidium iodide staining based fluorescence 2D monolayer assay. The class given is functional, cell-based. The settings on record: DU-145, 96 h.
In data set [9] the test system is CWR22R. Description: Antiproliferative activity against human 22Rv1 cells assessed as relative inhibition after 96 hrs by propidium iodide staining based fluorescence 2D monolayer assay. The class given is functional, cell-based. The settings on record: 22Rv1, 96 h.
Data set [10] has as its system VCaP. Nature of the data set: Antiproliferative activity against human VCaP cells assessed as relative inhibition after 96 hrs by propidium iodide staining based fluorescence 2D monolayer assay. The class given is functional, cell-based.
For data set [11] the following is noted: 96 h.
Description: Solubility in RPMI1640 culture medium at <30 uM incubated for 4 days by microscopic analysis
The conditions of data set [12]: 33000 µM.
Description: Solubility in 100% DMSO at 33 mM at -20 degC
Data set [13] deals with CWR22R. Nature of the data set: Potency index, ratio of bicalutamide IC50 to compound IC50 for human 22Rv1 cells. The class given is functional.
Data set [14] has as its system DU-145. Description: Potency index, ratio of bicalutamide IC50 to compound IC50 for human DU145 cells. It counts as functional.
In data set [15] the test system is LNCaP. Nature of the data set: Potency index, ratio of bicalutamide IC50 to compound IC50 for human LNCAP cells. The class given is functional.
The test system of data set [16] is VCaP. Nature of the data set: Potency index, ratio of bicalutamide IC50 to compound IC50 for human VCaP cells. The class given is functional.
Data set [17] relates to CWR22R. Description: Potency index, ratio of (R)-bicalutamide IC50 to compound IC50 for human 22Rv1 cells. It counts as functional.
Data set [18] deals with DU-145. Nature of the data set: Potency index, ratio of (R)-bicalutamide IC50 to compound IC50 for human DU145 cells. The class given is functional.
Data set [19] relates to LNCaP. Nature of the data set: Potency index, ratio of (R)-bicalutamide IC50 to compound IC50 for human LNCAP cells. It counts as functional.
Data set [20] relates to VCaP. Description: Potency index, ratio of (R)-bicalutamide IC50 to compound IC50 for human VCaP cells. It counts as functional.
Data set [21] addresses T1, Androgen receptor (Rattus norvegicus). Nature of the data set: Antagonist activity at rat androgen receptor fused with DNA-binding domain of GAL4 expressed in AR-UAS-bla GripTite 293 cells assessed as inhibition of R1881-induced receptor activation at 1 uM preincubated for 30 mins followed by R1881 addition measured after 16 to 24 hrs by betalactamase reporter gene assay relative to control. The class given is cell-based.

A short description of data set [22]: Metabolic stability in human liver microsomes at 3 uM preincubated with compound followed by NADPH addition measured after 5 to 45 mins by LC-MS/MS analysis. It counts as ADME, Microsome.
The nature of data set [23]: Apparent permeability from apical to basolateral side in human Caco2 cells at 10 uM incubated for 120 mins by LC-MS/MS analysis. The settings on record: Caco-2.
Data set [24] can be described thus: Apparent permeability from basolateral to apical side in human Caco2 cells at 10 uM incubated for 120 mins by LC-MS/MS analysis. The settings on record: Caco-2.
Data set [25] can be described thus: Efflux ratio of apparent permeability from basolateral to apical side over apical to basolateral side in human Caco2 cells at 10 uM incubated for 120 mins by LC-MS/MS analysis. The settings on record: Caco-2.
The test system of data set [26] is HepG2. Description: Cytotoxicity against human HepG2 cells assessed as reduction in cell viability after 72 hrs by MTT assay. The conditions noted are these: HepG2, 72 h. The class given is functional, cell-based.
Data set [27] deals with HepG2. Nature of the data set: Cytotoxicity against human HepG2 cells assessed as reduction in cell viability at 100 uM after 72 hrs by MTT assay relative to control. It counts as functional.

Experimental findings from ChEMBL document CHEMBL4477199, “Design and synthesis of novel bicalutamide and enzalutamide derivatives as antiproliferative agents for the treatment of prostate cancer” (Eur J Med Chem, 2016) are described below.

pIC50: −log10 of the molar value.

`CC1(C)C(=O)N(c2ccc(C(F)(F)F)cc2)C(=O)N1c1ccc([N+](=O)[O-])c(C(F)(F)F)c1`: the pIC50 was at most 4.00 with CWR22R [1]; at most 4.00 in the data set with DU-145 [2]; 5.67 in the data set on LNCaP [3]; 4.14 in the data set with VCaP [4]; 7.10 on Androgen receptor; 5.79 in the data set with LNCaP [7]. Moreover, the figures for the pIC50 in the data set on DU-145 [8], with CWR22R [9] and in the data set with VCaP [10] were under 4.00, 4.38 and 7.28, respectively. The IC70 was over 100 µM with CWR22R [1]; over 100 µM with DU-145 [2]; 9.64 µM in the data set on LNCaP [3]; over 100 µM in the data set on VCaP [4]; 7.89 µM with LNCaP [7]; over 100 µM with DU-145 [8]. Further, the IC70 is over 100 µM with CWR22R [9] and 7.76 µM with VCaP [10]. Moreover, the “Ratio IC50” value with LNCaP [5] is recorded as “<=5”. The inhibition result in data set [6] was “Dose-dependent effect”. Further, the solubility entry in data set [11] and in data set [12] was “Soluble” in each case.
Regarding `C[C@](O)(CS(=O)(=O)c1ccc(C(F)(F)F)cc1)C(=O)Nc1ccc(C#N)c(C(F)(F)F)c1`, the pIC50 in the data set on CWR22R [1] was 4.69; with DU-145 [2] it was 4.57; in the data set with LNCaP [3] it was 4.76; in the data set with VCaP [4], 4.50; on Androgen receptor, 6.11. Further, the “Ratio IC50” value with CWR22R [13] is “<=2”; in the data set with DU-145 [14], “<=2”; in the data set on LNCaP [15], “<=2”; with VCaP [16], “<=2”; in the data set with CWR22R [17] it was 2; with DU-145 [18], 2. The “Ratio IC50” value with LNCaP [19] and with VCaP [20] was 2 in each case. Further, the inhibition entry in [6] is “Dose-dependent effect”. In addition, the solubility result in data set [11] and in data set [12] was “Soluble” each time.
Regarding `CC(O)(COc1ccc(C#N)c(F)c1)C(=O)Nc1ccc([N+](=O)[O-])c(C(F)(F)F)c1` (stereo unspecified), the negative-log IC50 (pIC50) in the data set on CWR22R [1] is 4.93; in the data set with DU-145 [2], 4.79; in the data set with LNCaP [3], 5.11; with VCaP [4], 4.91; at Androgen receptor, 7.31. Besides, the inhibition was 65% in [21] and “Dose-dependent effect” in data set [6]. Besides, the solubility result in data set [11] and in data set [12] was “Soluble” each time.
For the molecule `C[C@](O)(CS(=O)(=O)c1ccc(OC(F)(F)F)cc1)C(=O)Nc1ccc(C#N)c(C(F)(F)F)c1`, the pIC50 was 4.73 in the data set on CWR22R [1]; 4.50 in the data set on DU-145 [2]; 4.72 in the data set on LNCaP [3]; 4.51 in the data set with VCaP [4]; 6.11 at Androgen receptor. Besides, the inhibition was 53 to 69% in data set [21] and “Dose-dependent effect” in data set [6]. Further, the solubility result in [11] and in [12] was “Soluble” throughout.
Consider `C[C@](O)(COc1ccc(C#N)cc1)C(=O)Nc1ccc(C#N)c(C(F)(F)F)c1` [ENOBOSARM], for which the negative-log IC50 (pIC50) in the data set on CWR22R [1] is 4.61; in the data set with DU-145 [2], 4.35; in the data set on VCaP [4], 4.61; at Androgen receptor, 7.44. In data set [22], the Stability result is recorded as “Stable”. Further, in data set [23], the Papp A→B at 2 h, 10 µM worked out at 31.5 ×10⁻⁶ cm/s. Also, the Papp B→A at 2 h, 10 µM in data set [24] turned out to be 26.7 ×10⁻⁶ cm/s. In addition, the efflux ratio at 2 h, 10 µM in data set [25] came out at 0.848. The concentration at half-maximal activity (AC50) in the data set with HepG2 [26] stood at 32.8 µM. In the data set on HepG2 [26] (read-out: MEC), the minimal effective concentration stood at 21.8 µM. In addition, the cell viability reduction in the data set on HepG2 [27] is recorded as 79%.
